The text below walks through data of ChEMBL document CHEMBL1142224, “Mapping the elusive neonicotinoid binding site” (Proc Natl Acad Sci U S A, 2007).

A short description of assay [1]: Displacement of [3H]ACE from Aplysia AChBP expressed in HEK293S cells by scintillation proximity assay. The assay is classed as cell-based. A general note: In a radioligand displacement assay an active substance lowers the binding of a labelled ligand.
Assay [2] can be described thus: Displacement of [3H]EPI from Aplysia AChBP expressed in HEK293S cells by scintillation proximity assay. The class given is cell-based.
A short description of assay [3]: Inhibition of [3H]1-((5-azido-6-chloropyridin-3-yl)methyl)-3-methyl-2-nitroguanidine incorporation into AchBP assessed as protection of photoaffinity labeling at 500 pmol. The arrangement: scale not given: the % may be the effect or the level left.

For orientation: Ki means a dissociation constant, usually derived from enzyme kinetics or from competition with a known ligand. `C/C(=N\C#N)N(C)Cc1ccc(Cl)nc1` [ACETAMIPRID]: the results for the inhibition constant Ki in assay [1] and in assay [2] were 41 nM and 19 nM, respectively.
The matching figures for `CN1CCC[C@H]1c1cccnc1` [NICOTINE]: 415 nM and 260 nM.
For the molecule `CCN(Cc1ccc(Cl)nc1)/C(=C/[N+](=O)[O-])NC` [NITENPYRAM], the Ki was 335 nM in assay [1] and 180 nM in assay [2].
Taken in the same sequence, the figures for `N=C1NCCN1Cc1ccc(Cl)nc1` [DESNITROIMIDACLOPRID] were 56 nM and 44 nM.
As for `N#C/N=C1\SCCN1Cc1ccc(Cl)nc1` [THIACLOPRID], the results for the Ki in assay [1] and in assay [2] were 9.9 nM and 8.4 nM, respectively.
Consider `O=[N+]([O-])/N=C1\NCCN1Cc1ccc(Cl)nc1` [IMIDACLOPRID], for which the Activity in assay [3] is 50%. For the same molecule, the Ki in assay [1] came to 267 nM; in assay [2], 180 nM.
Take `Clc1ccc(C2CC3CCC2N3)cn1` (racemic) [EPIBATIDINE]: the Ki in assay [1] is 14 nM; in assay [2], 8.6 nM.
Taken in the same sequence, the figures for `N#C/N=c1\sccn1Cc1cnc(Cl)c(N=[N+]=[N-])c1` were 2.3 nM and 1.7 nM.
As to `CN/C(=N\[N+](=O)[O-])NCc1cnc(Cl)s1` [CLOTHIANIDINE], the Ki in assay [1] was determined as 808 nM; in assay [2], 574 nM.
The matching figures for `N=C1SCCN1Cc1ccc(Cl)nc1` [DESCYANOTHIACLOPRID]: 10 nM and 8.5 nM.
